In ChEMBL document CHEMBL1158193, “Ability of different flavonoids to inhibit the procoagulant activity of adherent human monocytes” (J Nat Prod, 1996):

These molecules were tested on Monocyte (assay: Inhibition of procoagulant activity in monocyte from human blood assessed as counteraction of IL1-induced tissue factor expression after 18 hrs).
Type: functional, cell-based
Molecule `COc1cc(-c2oc3cc(O)cc(O)c3c(=O)c2O[C@@H]2O[C@H](CO)[C@@H](O)[C@H](O)[C@H]2O)ccc1O` has an IC50 of 3800 nM.
In the case of `O=c1cc(-c2ccc(O)c(-c3c(O)cc(O)c4c(=O)cc(-c5ccc(O)cc5)oc34)c2)oc2cc(O)cc(O)c12` [AMENTOFLAVONE], the IC50 is reported as 3000 nM.
With `O=c1cc(-c2ccc(O)cc2)oc2cc(O)cc(O)c12` [APIGENIN] the IC50 was 1200 nM.
Work on `COc1cc2oc(-c3ccc(O)cc3)cc(=O)c2cc1CC=C(C)C` [BAVACHININ] yielded an IC50 of 3200 nM.
Work on `O=c1cc(-c2ccccc2)oc2cc(O)cc(O)c12` [CHRYSIN] yielded an IC50 of 2400 nM.
With `COc1cc(-c2cc(=O)c3c(O)cc(O)cc3o2)ccc1O` [CHRYSOERIOL] the IC50 was 2600 nM.
In the case of `COc1ccc(-c2cc(=O)c3c(O)cc(O)cc3o2)cc1O` [DIOSMETIN], the IC50 is reported as 3000 nM.
`O=c1c(O)c(-c2ccc(O)c(O)c2)oc2cc(O)ccc12` [FISETIN] gave an IC50 of 3700 nM.
Molecule `COc1cc(-c2oc3cc(O)ccc3c(=O)c2O)ccc1O` [GERALDOL] has an IC50 of 2300 nM.
For `COc1ccc([C@@H]2CC(=O)c3c(O)cc(O)cc3O2)cc1O` [HESPERETIN], the IC50 was 2100 nM.
Work on `O=c1cc(-c2ccc(Oc3c(O)cc4oc(-c5ccc(O)cc5)cc(=O)c4c3O)cc2)oc2cc(O)cc(O)c12` [HINOKIFLAVONE] yielded an IC50 of 48 nM.
`COc1cc(-c2oc3cc(O)cc(O)c3c(=O)c2O)ccc1O` [ISORHAMNETIN] showed an IC50 of 3800 nM.
`COc1ccc(-c2oc3cc(O)cc(O)c3c(=O)c2O)cc1` [KAEMPFERIDE] gave an IC50 of 5700 nM.
`O=c1c(O)c(-c2ccc(O)cc2)oc2cc(O)cc(O)c12` [KAEMPFEROL] gave an IC50 of 2700 nM.
With `O=c1cc(-c2ccc(O)c(O[C@@H]3O[C@H](CO)[C@@H](O)[C@H](O)[C@H]3O)c2)oc2cc(O[C@@H]3O[C@H](CO)[C@@H](O)[C@H](O)[C@H]3O)cc(O)c12` [LUTEOLIN-3',7-DIGLUCOSIDE] the IC50 was 1550 nM.
`O=c1cc(-c2ccc(O)c(O)c2)oc2cc(O)cc(O)c12` [LUTEOLIN] was tested, and the IC50 was 1500 nM.
`COc1ccc(-c2cc(=O)c3c(OC)c(OC)c(OC)cc3o2)cc1OC` [SINENSETIN] showed an IC50 of 10000 nM.
With `COc1cc(-c2oc3cc(O)cc(O)c3c(=O)c2O)cc(OC)c1O` [SYRINGETIN] the IC50 was 2100 nM.
Work on `COc1ccc(-c2oc3cc(O)cc(O)c3c(=O)c2O)cc1O` [TAMARIXETIN] yielded an IC50 of 4600 nM.
With `O=C(/C=C/c1ccc(O)cc1)OC[C@H]1O[C@@H](Oc2c(-c3ccc(O)cc3)oc3cc(O)cc(O)c3c2=O)[C@H](O)[C@@H](O)[C@@H]1O` [TILIROSIDE] the IC50 was 5200 nM.

These molecules were tested on Monocyte (assay: Inhibition of procoagulant activity in monocyte from human blood assessed as counteraction of IL1-induced tissue factor expression at 10 uM after 18 hrs measured as microunits of tissue factor/10^5 cells).
Type: functional
Work on `COc1ccc(-c2cc(=O)c3c(OC)c(OC)c(OC)cc3o2)cc1O` yielded an Activity of 0.
`CC(=O)OC[C@H]1O[C@@H](Oc2c(-c3ccc(O)c(O)c3)oc3cc(O)cc(O)c3c2=O)[C@H](O)[C@@H](O)[C@@H]1O` was tested, and the Activity was 12.4.
`C[C@@H]1O[C@@H](OC[C@H]2O[C@@H](Oc3c(-c4ccccc4O)oc4cc(O)cc(O)c4c3=O)[C@H](O)[C@@H](O)[C@@H]2O)[C@H](O)[C@H](O)[C@H]1O` showed an Activity of 28.4.
For `CCCC(=O)Oc1c(OC)cc(O)c2c(=O)c(O)c(-c3ccccc3)oc12`, the Activity was 0.
Molecule `COc1cc(-c2cc(=O)c3c(O)cc(O)cc3o2)cc(OC)c1OC` has an Activity of 0.
`COc1ccc(-c2cc(=O)c3ccccc3o2)cc1` [4'-METHOXYFLAVONE] showed an Activity of 0.
`O=C1c2c(O)cc(O)cc2O[C@H](c2ccc(O)c(O)c2)[C@H]1O` [(+)-TAXIFOLIN] was tested, and the Activity was 41.
For `COc1ccc(-c2cc(=O)c3c(O)cc(O)cc3o2)cc1` [ACACETIN], the Activity was 26.
For `O=c1c(O[C@@H]2O[C@H](CO)[C@@H](O)[C@H](O)[C@H]2O)c(-c2ccc(O)cc2)oc2cc(O)cc(O)c12` [ASTRAGALIN], the Activity was 0.
Molecule `O=c1c(O[C@@H]2O[C@@H](CO)[C@H](O)[C@H]2O)c(-c2ccc(O)c(O)c2)oc2cc(O)cc(O)c12` [AVICULARIN] has an Activity of 0.
For `O=c1cc(-c2ccccc2)oc2cc(O)c(O)c(O)c12` [BAICALEIN], the Activity was 55.2.
In the case of `O=c1c(-c2ccc(O)cc2)coc2cc(O)ccc12` [DAIDZEIN], the Activity is reported as 0.
`O=c1c(-c2ccc(O)cc2)coc2cc(O[C@@H]3O[C@H](CO)[C@@H](O)[C@H](O)[C@H]3O)ccc12` [DAIDZIN] was tested, and the Activity was 0.
`O=c1c(O)c(-c2ccccc2O)oc2cc(O)cc(O)c12` [DATISCETIN] showed an Activity of 28.4.
For `O=C1c2ccc(O)cc2O[C@@H](c2cc(O)c(O)c(O)c2)[C@@H]1O` [DIHYDROROBINETIN], the Activity was 0.
Work on `COc1ccc(-c2cc(=O)c3c(O)c(OC)c(OC)cc3o2)cc1O` [EUPATORIN] yielded an Activity of 0.
`O=c1cc(-c2ccccc2)oc2ccccc12` [FLAVONE] was tested, and the Activity was 6.8.
Molecule `O=C1c2ccc(O)cc2O[C@H](c2ccc(O)c(O)c2)[C@H]1O` [FUSTIN] has an Activity of 0.
`O=c1c(O)c(-c2ccccc2)oc2cc(O)cc(O)c12` [GALANGIN] was tested, and the Activity was 0.
Molecule `COc1cc(-c2cc(=O)c3c(O)c(OC)c(OC)cc3o2)cc(OC)c1OC` [GRADENIN A] has an Activity of 0.
`O=c1cc(-c2ccc(Oc3c(O)cc4oc(-c5ccc(O)cc5)cc(=O)c4c3O)cc2)oc2cc(O)cc(O)c12` [HINOKIFLAVONE] gave an Activity of 0.
With `COc1cc([C@@H]2CC(=O)c3c(O)cc(O)cc3O2)ccc1O` [HOMOERIODICTYOL] the Activity was 0.
`COc1c(-c2ccccc2)oc2c(ccc3occc32)c1=O` [KARANJIN] showed an Activity of 0.
`O=c1cc(-c2ccc(O)c(O)c2)oc2cc(O)cc(O)c12` [LUTEOLIN] gave an Activity of 10.6.
With `O=c1c(O)c(-c2ccc(O)cc2O)oc2cc(O)cc(O)c12` [MORIN] the Activity was 0.
With `O=c1c(O)c(-c2cc(O)c(O)c(O)c2)oc2cc(O)cc(O)c12` [MYRICETIN] the Activity was 1.2.
With `C[C@H]1O[C@@H](Oc2c(-c3cc(O)c(O)c(O)c3)oc3cc(O)cc(O)c3c2=O)[C@@H](O)[C@@H](O)[C@@H]1O` [MYRICITRIN] the Activity was 37.7.
`O=C1C[C@@H](c2ccc(O)cc2)Oc2cc(O)cc(O)c21` [NARINGENIN] showed an Activity of 0.
With `C[C@@H]1O[C@@H](OC[C@H]2O[C@@H](Oc3cc(O)c4c(c3)O[C@H](c3ccc(O)cc3)CC4=O)[C@H](O)[C@@H](O)[C@@H]2O)[C@H](O)[C@H](O)[C@H]1O` [NARIRUTIN] the Activity was 0.
`COc1ccc([C@@H]2CC(=O)c3c(O)cc(O[C@@H]4O[C@H](CO)[C@@H](O)[C@H](O)[C@H]4O[C@@H]4O[C@@H](C)[C@H](O)[C@@H](O)[C@H]4O)cc3O2)cc1O` [NEOHESPERIDIN] was tested, and the Activity was 0.
`O=c1c(-c2ccc3c(c2)OCO3)coc2cc(O)ccc12` [PSEUDOBAPTOGENIN] gave an Activity of 0.
In the case of `O=c1c(O)c(-c2ccc(O)c(O)c2)oc2cc(O)c(O)c(O)c12` [QUERCETAGETIN], the Activity is reported as 0.
`O=c1c(O)c(-c2ccc(O)c(O)c2)oc2cc(O)cc(O)c12` [QUERCETIN] was tested, and the Activity was 0.
`COc1cc(O)c2c(=O)c(O)c(-c3ccc(O)c(O)c3)oc2c1` [RHAMNETIN] was tested, and the Activity was 0.
Molecule `O=c1c(O)c(-c2cc(O)c(O)c(O)c2)oc2cc(O)ccc12` [ROBINETIN] has an Activity of 38.5.
With `C[C@@H]1O[C@@H](OC[C@H]2O[C@@H](Oc3c(-c4ccc(O)c(O)c4)oc4cc(O)cc(O)c4c3=O)[C@H](O)[C@@H](O)[C@@H]2O)[C@H](O)[C@H](O)[C@H]1O` [RUTIN] the Activity was 9.1.
`COc1ccc(-c2cc(=O)c3c(O)cc(O)c(-c4cc(-c5cc(=O)c6c(O)cc(OC)cc6o5)ccc4OC)c3o2)cc1` [SCIADOPITISIN] was tested, and the Activity was 0.
`COc1cc(C2Oc3cc([C@H]4Oc5cc(O)cc(O)c5C(=O)[C@@H]4O)ccc3OC2CO)ccc1O` (stereo partly specified) [SILIBININ] was tested, and the Activity was 0.
For `COc1ccc(-c2cc(=O)c3c(OC)c(OC)c(OC)c(OC)c3o2)cc1` [TANGERETIN], the Activity was 0.
`COc1cc(O)c2c(=O)cc(-c3ccccc3)oc2c1` [TECHTOCHRYSIN] showed an Activity of 39.

The molecules below were run on Monocyte (assay: Inhibition of procoagulant activity in monocyte from human blood assessed as counteraction of endotoxin-induced tissue factor expression after 18 hrs).
Type: functional, cell-based
With `O=c1cc(-c2ccc(Oc3c(O)cc4oc(-c5ccc(O)cc5)cc(=O)c4c3O)cc2)oc2cc(O)cc(O)c12` [HINOKIFLAVONE] the IC50 was 18 nM.
